Test results: paper PMC12320299 (Chemical Science, 2025)

Key:
[1] = Stability study by UV-Vis spectroscopy in PBS (1% DMSO); assay type: physicochemical; conditions: 40 μM 1a/2a, 80 μM 1b/2b
Method: Stability Study by UV-Vis Spectroscopy
All four compounds were freshly diluted in PBS (1% DMSO) from a DMSO stock solution at […]
80 µM. The stability of the compounds was monitored in a UV-Vis spectrophotometer (Perkin Elmer lambda 35 photometer) over 96 h by acquiring an UV-Vis spectrum every 30 mins. The percentage of the remaining intact compound was calculated by the ratio of the maximum absorbance of the tridentate complexes’ characteristic absorption band around 350– 370 nm after a given timepoint (A) compared to the one directly after dilution (A0). […]

[2] = Solubility in phosphate buffered saline; assay type: physicochemical; conditions: PBS with 1% DMSO
Text: Fig. 2 (A) Chemical structures of the investigated naphthoquinone-based metal(arenes) in this study.

[3] = system: SW480 colon carcinoma cell line; test: MTT viability assay, SW480, 24 h; assay type: cell-based, human; conditions: for IC50: 24 h incubation; for potency compared to morpholine-analogues 1b and 2b: SW480, 24 h
Method: cultured in adherent T75 flasks (Sarstedt) in a humidified incubator at 37 °C and 5% CO2 (HeraCell150i, Thermo Fisher Scientific) and subcultured three times a week as the cells reached 75–80% growth area occupied. […]
Trypsin/EDTA solution (0.25%, Sigma-Aldrich) was used for detachment of all […]
SW480 human colon carcinoma cells (4.000 cells/well for the ethyl complexes; 4.000 and 10.000 cells/well for the morpholino complexes) were seeded in flat-bottom 96-well plates (Corning) and incubated at 37 °C for 24 h in a humidified incubator at 5% CO2 (HeraCell150i, Thermo Fisher Scientific). Stock solutions of the compounds were freshly prepared in DMSO […]
10 µM in complete cell culture medium for the ethyl compounds and 5, 10, 20, 40, 60, 80, 120, 160 µM for the morpholino compounds (final concentration of DMSO ≤0.4% v/v). The cells were incubated with the compounds for 24 h and 72 h. Then, the cell metabolism was colorimetrically determined using 3-(4,5-dimethylthiazol-2-yl)-2,5-diphenyl tetrazolium bromide (MTT). For this purpose, MTT reagent (20 µL, 5 mg mL-1 in phosphate-buffered saline, PBS) was added to each well and further incubated for 4 h. The medium was gently […]
removed and 100 µL DMSO was added to dissolve the formazan crystals. Photometric quantification was performed at 570 nm with a Multiskan Go 1510 photometer (Thermo Fisher […]
The absorbances were blank corrected and converted to relative proliferation. The IC50 values (concentration of 50% growth inhibition) were obtained using a sigmoidal fit of the experimental data and calculated as the mean ± standard deviation of at least three independent experiments, each in at least triplicates. […]
(each 3.000 cells/well) were seeded in 100 µL/well into flat-bottom 96-well plates (Starlab) and incubated at 37 °C for 24 h in a humidified incubator (Binder CB210) at 5% CO2. Complex 1a, bafilomycin or bortezomib were dissolved in DMSO and diluted in appropriate cell culture medium to respective concentrations. After 24 h of treatment, plates were measured by MTT assay as described above.
Colon carcinoma cells (SW480) were seeded into 12-well plates (CytoOne, Starlab) in densities of 1×10^5 cells per well (in 1 mL complete medium). After 24 h, cells were treated with […]

[4] = Reactivity with mixture of small biological nucleophiles by ESI-MS; assay type: physicochemical; conditions: for reaction with nucleophile mixture within 24 h: 50 μM; for Intact compound after 24 h, nucleophile mixture: equimolar Cys/Met/His/ATP/GTP, each 50 μM, ESI-MS
Method: Then, the compounds were analogously incubated with an equimolar mixture of cysteine, methionine, histidine, adenosine triphosphate and guanosine triphosphate to verify coordination preferences for amino acids over nucleotides. The reactivity of the four compounds was qualitatively similar, characterized by release of the NQ ligands and formation of mainly methionine and histidine-adducts with the metal(arene) (ESI, Fig. S13 ^†). No metalation of the nucleotides was observed. In contrast to other O,O-ligand systems, which are typically deactivated within minutes by ligand release under such conditions,[51,52] the N,O,O-tridentate organometallics studied here were characterized by increased stability. […] Again, the 3-Morph-NQ ligand was detected upon release from the metal centre, but hydrolysis dimers were not observed in the presence of bionucleophiles (ESI, Fig. S13 ^†). The reactivity of the compounds towards an equimolar concentration of the model protein ubiquitin was characterized by similar kinetic behaviours and reactivity (ESI, Fig. S14 ^†). […]
aliquot was used for stability testing of the respective test substance in aqueous solution. […]
2b were equimolarly added (50 µM) to a mixture of three amino acids and two nucleotides (Cys/Met/His/ATP/GTP; each 50 µM in aqueous solution) to test the interaction with small biological nucleophiles. All samples were mixed and incubated in a shaking incubator at 37 °C with speed set to 1000 rpm in the dark (Eppendorf ThermoMixer® C). After 1.5 h, 24 h and 72 h, 300 µL per sample were transferred to fresh reaction vessels, immediately frozen in liquid N2 and stored at –20 °C until measurement.
Samples were diluted to a concentration of 2.5 µM with an organic eluent (49.5% v/v acetonitrile, 49.5% v/v methanol,1% v/v H2O), except ubiquitin containing samples which were diluted to the same concentration with acidified H2O (0.1% v/v formic acid). The samples were then analysed by flow-injection using an amazon speed ETD ion trap (Bruker Daltonics) in the positive ion mode over 0.4 min using the following experimental parameters: HV capillary ±4.5 kV, end plate offset –500 V, dry temp 180 °C, nebulizer 3 bar, dry gas 5 L min-1, scan range m/z 200–1400, target mass m/z 900, flow rate 5 µL min-1. For ubiquitin containing samples, the scan range was adapted to m/z 300– 2200 with a target mass of m/z 1100. Data

## Cc1ccc(C(C)C)cc1.O=C1C(CN2CCOCC2)=C2[O][Ru][O]C2(n2cccn2)c2ccccc21 (stereo not shown) [Compound 1b]
[1]
  intact complex, UV-vis, 24 h: 76%
  intact complex, UV-vis, 96 h: 64%
[2]
  Solubility in PBS: 1220 µM
[3]
  IC50: 38 ± 5 µM
[4]
  reaction with nucleophile mixture within 24 h: reacted nearly quantitatively
  Intact compound after 24 h, nucleophile mixture: 7%

## CCC1=C2[O][Ru][O]C2(n2cccn2)c2ccccc2C1=O.Cc1ccc(C(C)C)cc1 (stereo not shown) [Compound 1a, [(3-ethyl-4-oxo-(pyrazolyl)-dihydronaphthalene)(cymene)ruthenium(II)]]
[1]
  intact complex, UV-vis, 24 h: 75%
  intact complex, UV-vis, 96 h: 53%
[2]
  Solubility in PBS: 170 µM
[3]
  IC50: 0.62 ± 0.04 µM
  potency compared to morpholine-analogues 1b and 2b: > 30 times
[4]
  reaction with nucleophile mixture within 24 h: reacted nearly quantitatively
  Intact compound after 24 h, nucleophile mixture: 4%

## CCC1=C2[O][Os][O]C2(n2cccn2)c2ccccc2C1=O.Cc1ccc(C(C)C)cc1 (stereo not shown) [Compound 2a]
[1]
  intact complex, UV-vis, 24 h: 85%
  intact complex, UV-vis, 96 h: 61%
[2]
  Solubility in PBS: 210 µM
[3]
  IC50: 1.2 ± 0.1 µM
  potency compared to morpholine-analogues 1b and 2b: > 30 times
[4]
  Intact compound after 24 h, nucleophile mixture: 19%
